Data reported in ChEMBL document CHEMBL3997818, “Structure-activity relationship studies of 1-(1'-hydroxyalkyl)rupestonic acid methyl esters against influenza viruses” (Bioorg Med Chem Lett, 2017).
Values after ≈ are worked out from the molar mass of the structure shown.

Key:
Influenza A virus = test: Antiviral activity against Influenza A virus H1N1 infected in MDCK cells assessed as inhibition of virus-induced cytopathic effect after 40 hrs; type: functional, cell-based
[1] = Selectivity index, ratio of TC50 for MDCK cells to IC50 for Influenza A virus H1N1 infected in MDCK cells; type: toxicity, cell-based; conditions: dog, read-out: Selectivity Index
Influenza A virus H3N2 = test: Antiviral activity against Influenza A virus H3N2 infected in MDCK cells assessed as inhibition of virus-induced cytopathic effect after 40 hrs; type: functional, cell-based
[2] = Selectivity index, ratio of TC50 for MDCK cells to IC50 for Influenza B virus infected in MDCK cells; type: toxicity, cell-based; conditions: dog, read-out: Selectivity Index
Influenza B virus = test: Antiviral activity against Influenza B virus infected in MDCK cells assessed as inhibition of virus-induced cytopathic effect after 40 hrs; type: functional, cell-based
[3] = Cytotoxicity against MDCK cells after 48 hrs by Reed and Muench analysis; type: cell-based, Canis lupus familiaris; conditions: dog, read-out: TC50
[4] = Selectivity index, ratio of TC50 for MDCK cells to IC50 for Influenza A virus H3N2 infected in MDCK cells; type: toxicity, cell-based; conditions: dog, read-out: Selectivity Index

Row | SMILES | IC50 (Influenza A virus) | selectivity ratio [1] | IC50 (Influenza A virus H3N2) | selectivity ratio [2] | IC50 (Influenza B virus) | CC50 at 48 h [3] | selectivity ratio [4]
1 | C=C(C(=O)OC)[C@@H]1CC[C@H](C)[C@H]2C(=C(C)C(=O)[C@@H]2[C@H](O)/C=C(\C)CCC=C(C)C)C1 | 2.06 µg/mL (≈ 4.97 µM) | 1.7 | 1.6 µg/mL (≈ 3.86 µM) | 3 | 1.2 µg/mL (≈ 2.89 µM) | 3.56 µg/mL (≈ 8.59 µM) | 2.2
2 | C=C(C(=O)OC)[C@@H]1CC[C@H](C)[C@@H]2CC(=O)C(C)=C2C1 | > 18.5 µg/mL | – | 19 µg/mL (≈ 72.4 µM) | – | > 18.5 µg/mL | 55.6 µg/mL (≈ 212 µM) | 3
3 | C=C(C(=O)OC)[C@@H]1CC[C@H](C)[C@H]2C(=C(C)C(=O)[C@@H]2[C@@H](C)O)C1 | 90 µg/mL (≈ 294 µM) | 5 | > 167 µg/mL | 7 | 72 µg/mL (≈ 235 µM) | 500 µg/mL (≈ 1630 µM) | –
4 | C=C(C(=O)OC)[C@@H]1CC[C@H](C)[C@H]2C(=C(C)C(=O)[C@@H]2[C@H](O)CC)C1 | 14.4 µg/mL (≈ 44.8 µM) | 9 | > 55.6 µg/mL | 7 | 18.5 µg/mL (≈ 57.8 µM) | 167 µg/mL (≈ 520 µM) | –
5 | C=C(C(=O)OC)[C@@H]1CC[C@H](C)[C@H]2C(=C(C)C(=O)[C@@H]2C(O)c2cc(F)cc(F)c2)C1 (single isomer, unassigned) | 2.63 µg/mL (≈ 6.5 µM) | 12.2 | 14 µg/mL (≈ 34.6 µM) | 1.7 | 18.5 µg/mL (≈ 45.8 µM) | 32.1 µg/mL (≈ 79.3 µM) | 2.2
6 | C=C(C(=O)OC)[C@@H]1CC[C@H](C)[C@H]2C(=C(C)C(=O)[C@@H]2C(O)c2cc(OC)c(OC)c(OC)c2)C1 (single isomer, unassigned) | 13 µg/mL (≈ 28.4 µM) | 13 | 56 µg/mL (≈ 122 µM) | – | > 55.6 µg/mL | 167 µg/mL (≈ 363 µM) | 3
7 | C=C(C(=O)OC)[C@@H]1CC[C@H](C)[C@H]2C(=C(C)C(=O)[C@@H]2C(O)c2ccc(OC)cc2)C1 (single isomer, unassigned) | > 18.5 µg/mL | – | > 18.5 µg/mL | 4.3 | 18.5 µg/mL (≈ 46.5 µM) | 80.1 µg/mL (≈ 201 µM) | –
8 | C=C(C(=O)OC)[C@@H]1CC[C@H](C)[C@H]2C(=C(C)C(=O)[C@@H]2C(O)c2cccs2)C1 (single isomer, unassigned) | > 2.06 µg/mL | – | 1.19 µg/mL (≈ 3.18 µM) | – | > 2.06 µg/mL | 8.9 µg/mL (≈ 23.8 µM) | 7.5
9 | C=C(C(=O)OC)[C@@H]1CC[C@H](C)[C@H]2C(=C(C)C(=O)[C@@H]2C(O)c2ccc(F)cc2)C1 (single isomer, unassigned) | 19 µg/mL (≈ 49.2 µM) | 4.3 | > 18.5 µg/mL | 7.5 | 11 µg/mL (≈ 28.5 µM) | 80.1 µg/mL (≈ 207 µM) | –
10 | C=C(C(=O)OC)[C@@H]1CC[C@H](C)[C@H]2C(=C(C)C(=O)[C@@H]2C(O)c2cc(Cl)cc(Cl)c2)C1 (single isomer, unassigned) | > 6.17 µg/mL | – | 6 µg/mL (≈ 13.7 µM) | – | > 6.17 µg/mL | 10.7 µg/mL (≈ 24.4 µM) | 1.7
11 | C=C(C(=O)OC)[C@@H]1CC[C@H](C)[C@H]2C(=C(C)C(=O)[C@@H]2C(O)c2ccccc2)C1 (single isomer, unassigned) | 6.17 µg/mL (≈ 16.7 µM) | 2.1 | 6 µg/mL (≈ 16.3 µM) | – | > 6.17 µg/mL | 12.8 µg/mL (≈ 34.8 µM) | 2.1
12 | C=C(C(=O)OC)[C@@H]1CC[C@H](C)[C@H]2C(=C(C)C(=O)[C@@H]2C(O)c2ccc([N+](=O)[O-])s2)C1 (single isomer, unassigned) | 1.6 µg/mL (≈ 3.81 µM) | 2.7 | > 2.06 µg/mL | 2.1 | 2.06 µg/mL (≈ 4.91 µM) | 4.28 µg/mL (≈ 10.2 µM) | –
13 | C=C(C(=O)OC)[C@@H]1CC[C@H](C)[C@H]2C(=C(C)C(=O)[C@@H]2C(O)c2cc(C(F)(F)F)cc(C(F)(F)F)c2)C1 (single isomer, unassigned) | 11 µg/mL (≈ 21.8 µM) | 3 | 18.5 µg/mL (≈ 36.7 µM) | – | > 18.5 µg/mL | 32.1 µg/mL (≈ 63.6 µM) | 1.7
14 | C=C(C(=O)OC)[C@@H]1CC[C@H](C)[C@H]2C(=C(C)C(=O)[C@@H]2C(O)c2ccncc2)C1 (single isomer, unassigned) | 10.7 µg/mL (≈ 28.9 µM) | 7.5 | > 18.5 µg/mL | 4.3 | 18.5 µg/mL (≈ 50.1 µM) | 80.1 µg/mL (≈ 217 µM) | –
15 | C=C(C(=O)OC)[C@@H]1CC[C@H](C)[C@H]2C(=C(C)C(=O)[C@@H]2C(O)c2ccc(N(C)C)cc2)C1 (single isomer, unassigned) | 10.7 µg/mL (≈ 26 µM) | 3 | 18.5 µg/mL (≈ 45 µM) | – | > 18.5 µg/mL | 32.1 µg/mL (≈ 78 µM) | 1.7
16 | C=C(C(=O)OC)[C@@H]1CC[C@H](C)[C@H]2C(=C(C)C(=O)[C@@H]2C(O)c2ccc(OC(F)(F)F)cc2)C1 (single isomer, unassigned) | > 18.5 µg/mL | – | 18 µg/mL (≈ 39.8 µM) | – | > 18.5 µg/mL | 32.1 µg/mL (≈ 70.9 µM) | 1.7
17 | CCOC(=O)C1=C[C@@H](OC(CC)CC)[C@H](NC(C)=O)[C@@H](N)C1 [OSELTAMIVIR] | 3.9 µg/mL (≈ 12.5 µM) | – | 1.7 µg/mL (≈ 5.44 µM) | – | – | – | –
18 | C=C(C(=O)O)[C@@H]1CC[C@H](C)[C@@H]2CC(=O)C(C)=C2C1 [PECHUELOIC ACID] | 55.6 µg/mL (≈ 224 µM) | 4.3 | 55.6 µg/mL (≈ 224 µM) | 10 | 24 µg/mL (≈ 96.6 µM) | 240 µg/mL (≈ 968 µM) | 4.3
19 | NC(=O)c1ncn([C@@H]2O[C@H](CO)[C@@H](O)[C@H]2O)n1 [RIBAVIRIN] | 2.1 µg/mL (≈ 8.6 µM) | 560 | 1.1 µg/mL (≈ 4.5 µM) | 1400 | 0.8 µg/mL (≈ 3.28 µM) | – | 1100
